ChEMBL document CHEMBL1156829 (Proc Natl Acad Sci U S A, 2008)

Legend:
Plasmodium falciparum [1] = assay: NOVARTIS: Inhibition of Plasmodium falciparum 3D7 (drug-susceptible) proliferation in erythrocyte-based infection assay; type: functional, organism-based; conditions: Plasmodium falciparum, 3D7
[2] = NOVARTIS: Cytotoxicity against human hepatocellular carcinoma cell line (Huh7); type: toxicity, cell-based, Huh-7; conditions: Huh7 cells (hepatocellular carcinoma cell line)
Plasmodium falciparum [3] = assay: NOVARTIS: Inhibition of Plasmodium falciparum W2 (drug-resistant) proliferation in erythrocyte-based infection assay; type: functional, organism-based; conditions: Plasmodium falciparum, W2; read-out: EC50

| Compound | EC50 (Plasmodium falciparum [1]) | CC50 [2] | EC50 (Plasmodium falciparum [3]) |
| --- | --- | --- | --- |
| CCCCC(=O)N(CCCC(C)Nc1cc(OC)cc2cccnc12)Cc1ccccc1OC (stereo unspecified) | 348 nM | 1060 nM | 35 nM |
| O=C(Nc1cccc(-c2nc3ccccc3[nH]2)c1)c1cc(=O)c2ccccc2o1 | 397 nM | > 100000 nM | 786 nM |
| CN(C)CCCNC1=NC=NC2C=C(Cl)C=CC12 (stereo unspecified) | 290 nM | > 100000 nM | 713 nM |
| CCCCOc1ccc(NC2=C(N3CCCCC3)C(=O)c3ccccc3C2=O)cc1 | 9.86 nM | 15500 nM | 17.2 nM |
| O=C(Nc1cccc(Cl)c1)c1cc2ccccc2cc1O | 545 nM | 7890 nM | 229 nM |
| Oc1ccc(Cl)cc1C1CC(c2ccc(Cl)cc2)=NC(c2ccc(Cl)cc2)N1 (stereo unspecified) | 813 nM | 34700 nM | 783 nM |
| O=C(NCc1n[nH]c(=S)n1-c1ccc(Br)cc1)c1cccc2ccccc12 | 293 nM | > 100000 nM | 301 nM |
| CC(C)C(=O)N(C)CCCNc1ccnc2cc(Cl)ccc12 | 131 nM | > 10000 nM | 118 nM |
| O=C(NC1CCN(CC(O)CN(Cc2ccccc2)S(=O)(=O)c2ccccc2)C1)c1ccccc1 (stereo unspecified) | 81.9 nM | > 7270 nM | 56.9 nM |
| Cc1ccc(Sc2c(C)nn(C(=O)c3cccnc3)c2C)cc1 | 322 nM | > 10000 nM | > 677 nM |
| COC(=O)COc1ccc(/C=C2/SC(=Nc3ccc(F)cc3)NC2=O)cc1 | > 12500 nM | > 100000 nM | 1850 nM |
| CCCc1cc2c(=O)c(-c3ccc4c(c3)OCO4)c(CC)oc2cc1OC(C)C | 5840 nM | > 100000 nM | > 12500 nM |
| CCCCCC(=O)NCCCCCCNc1ccnc2cc(Cl)ccc12 | 254 nM | > 13900 nM | 222 nM |
| CCCCCc1ccc(OCCOCC[n+]2ccccc2)c(CCCCC)c1 | 7.08 nM | > 10000 nM | 6.85 nM |
| CCCOC(=O)C1=C(C)NC2=C(C(=O)CC(c3ccc(OC)c(OC)c3)C2)C1c1ccc(Br)cc1 (stereo unspecified) | 37.7 nM | > 100000 nM | 46.9 nM |
| Cc1ccc(C)c(N2CCN(CCCNC(=O)c3ccc(CSc4nc5cnccc5[nH]4)cc3)CC2)c1 | 644 nM | 23000 nM | 190 nM |
| OC(CN1CCN(Cc2ccccc2)CC1)Cn1c2ccc(I)cc2c2cc(I)ccc21 (stereo unspecified) | 651 nM | 20100 nM | 148 nM |
| COc1ccc(-c2cnc3ccc(NCc4cccc(Cl)c4)nn23)cn1 | 805 nM | 68900 nM | 1130 nM |
| COc1ccc(NC(=O)CCCCCn2c(SCC(=O)NCCc3ccc(OC)c(OC)c3)nc3ccsc3c2=O)cc1 | > 5310 nM | > 100000 nM | 837 nM |
| O=C1c2ccccc2-c2nc3c(Cl)cc(C(F)(F)F)cc3nc21 | 1040 nM | > 10000 nM | 747 nM |
| CCCCCCCCCCCC(OC(=O)C(CCCCN(O)C(C)=O)NC(=O)c1coc(-c2ccccc2O)n1)C(C)C(=O)NC1CCCCN(O)C1=O (stereo unspecified) [NOCARDIMICIN B] | > 864 nM | > 10000 nM | 2.24 nM |
| Cc1cc(C)nc(SCc2cc(=O)c(OC(=O)c3ccccc3Br)co2)n1 | > 11200 nM | > 100000 nM | > 11200 nM |
| CCN(CC)CCCC(C)Nc1ccnc2ccc([N+](=O)[O-])cc12 (stereo unspecified) | 249 nM | > 10000 nM | 747 nM |
| COc1ccc(C(=O)C(CCC(CNC(C)(C)C)C(=O)c2ccc(OC)cc2)CNC(C)(C)C)cc1 (stereo unspecified) | 1120 nM | > 10000 nM | 1190 nM |
| OC(CN1CCOCC1)Cn1cnc2c(SCc3ccccc3)ncnc21 (stereo unspecified) | > 12500 nM | > 100000 nM | > 9670 nM |
| CN(C)c1cc[n+](Cc2c(Cl)cccc2Cl)cc1 | 140 nM | 642 nM | 598 nM |

| Compound | EC50 (Plasmodium falciparum [1]) | CC50 [2] | EC50 (Plasmodium falciparum [3]) |
| --- | --- | --- | --- |
| COc1cccc(NC(=O)c2ccc(NCCCC3CCCCCC3)c([N+](=O)[O-])c2)c1 | 226 nM | 28800 nM | 391 nM |
| NCCCCCCNc1ccnc2cc(Cl)ccc12 | 288 nM | > 10000 nM | 132 nM |
| Cc1nn(CC(O)Cn2c3ccc(Br)cc3c3cc(Br)ccc32)c(C)c1Br (stereo unspecified) | 769 nM | 75200 nM | 177 nM |
| Cc1ccc2cc3cc(C(=O)NC(C)C)sc3nc2c1 | 989 nM | > 10000 nM | 1120 nM |
| CCCCOc1ccc(/C=C/C(=O)NCc2ccco2)cc1 | 183 nM | > 10000 nM | 744 nM |
| COc1cc(C=C(C#N)c2nc3ccccc3[nH]2)ccc1OCc1ccc(Cl)cc1 | 763 nM | > 100000 nM | 1570 nM |
| Cc1ccc(O)c(C(=O)c2c[nH]c(-c3nc4ccccc4[nH]3)c2)c1 | 2880 nM | 5650 nM | 2470 nM |
| CCOc1ccc(Nc2nc(NCc3ccccc3)c3ccccc3n2)cc1 | 88.2 nM | 5670 nM | 170 nM |
| O=C(Nc1cc(C(F)(F)F)ccc1OCc1ccccc1)c1ccccc1O | > 1250 nM | > 10000 nM | 949 nM |
| COCCN1Cc2cccc(C(=O)Nc3ccc4c(c3)OCCO4)c2C1=O | > 1450 nM | > 10000 nM | 1390 nM |
| CSc1nnc(-c2cccc([N+](=O)[O-])c2)n1Cc1ccccc1 | 652 nM | > 100000 nM | 495 nM |
| COc1ccc(NC(C)=C2C(=O)c3ccccc3C2=O)c(OC)c1 | 1270 nM | > 100000 nM | 426 nM |
| C=CC1CN2CCC1CC2[C@H](O)c1ccnc2ccc(O)cc12 (stereo partly specified) | 404 nM | > 100000 nM | 5720 nM |
| CCCCNc1cc(C)nc(NCc2ccccc2)n1 | 944 nM | > 10000 nM | 1020 nM |
| O=c1nc(C=Cc2ccc(Cl)cc2)oc2ccccc12 | 1100 nM | > 100000 nM | 1060 nM |
| Cn1c(=O)[nH]c2c(c1=O)n(C)c(=O)n2C | > 957 nM | > 10000 nM | > 799 nM |
| COc1ccc(Nc2nc(NN=Cc3cc(Br)c(O)cc3O)nc(Nc3ccc([N+](=O)[O-])cc3)n2)cc1 | 75 nM | 9580 nM | 198 nM |
| Cc1ccc(CSCc2ccc(C(=O)NC3CC3)o2)cc1 | 418 nM | > 100000 nM | 133 nM |
| Cc1ccc(CN2CCc3nc(N4CCCCC4)sc3C2)s1 | 14.1 nM | > 10000 nM | 10.5 nM |
| CCOC(=O)c1c(NC(=O)C(C)Sc2ncnc3c2oc2ccccc23)sc2c1CCC2 (stereo unspecified) | > 8810 nM | > 100000 nM | 2900 nM |
| CCOc1ccc(C(=O)N2CCN(Cc3ccccc3)CC2)cc1 | > 3670 nM | > 100000 nM | 322 nM |
| OC(CNC1CCCCC1)Cn1c2ccccc2c2ccccc21 (stereo unspecified) | 483 nM | 18000 nM | 198 nM |
| CCC(=O)N1CCN(C(=O)c2ccc(C)cc2)C1 | > 1500 nM | > 10000 nM | 1280 nM |
| COCCN(CC(=O)Nc1cc(C(C)(C)C)nn1-c1ccc(C)cc1)C(=O)COCc1ccccc1 | > 818 nM | > 10000 nM | > 1250 nM |
| COc1ccc(C(=O)N(CCCC(C)Nc2cc(OC)cc3cccnc23)Cc2ccccc2OC)cc1 (stereo unspecified) | 713 nM | 5180 nM | 270 nM |
| COc1cc(OC)cc(C(=O)NCc2n[nH]c(=S)n2-c2cccc(C(F)(F)F)c2)c1 | 258 nM | > 100000 nM | 261 nM |
